Assay results reported in patent US20200032249A1, “LABELING, ISOLATION, & ANALYSIS OF RNA FROM RARE CELL POPULATIONS” (priority 2017, published 2020).
Like-named read-outs stand apart in the source and are kept apart here.

Legend:
MDA231 cells = assay: stress granule formation by G3BP immunostaining; format: cell-based; settings: for treatment time after which cells started to form stress granules: human
Description: (§1) FIG. 2a-b. Flura-tagging has minimal cytotoxicity. FIG. 2a—Effect of Flura-tagging on stress granule formation. MDA231 cells were treated with 5-FC for the indicated times, and the formation of stress granules was detected by G3BP immunostaining. Control cells were either treated with water or sodium arsenite (Arsenite) for one hour. Arrows indicate stress granules (n=3). Scale bar=20 μM. FIG. 2b—Effect of Flura-tagging on transcription. RNA expression in control cells was compared to CD/UPRT-expressing cells treated with the indicated concentrations of 5-FC for 4 h or 12 h. Each dot represents a gene, with the outer/lighter gray dots indicating genes showing more than 2-fold differential expression, as determined by DESeq2 (n=2). The dotted line represents the four-fold cutoff mark.
5-FU is extensively used as a chemotherapeutic agent for the treatment of solid tumors, based on its ability to induce cancer cell death by inhibiting thymidylate synthase and by causing DNA and RNA damage (12-14). It was therefore crucial to test whether our 5-FU-tagging method, which is based on low concentrations of 5-FC and short incubation time periods, has significant cytotoxic effects under our experimental conditions. CD/UPRT-expressing cells were treated with 5-FC at concentrations of up to 250 μM for up to 12 h (“Flura-tagged” cells), and the effects of this treatment on RNA damage response and transcriptional regulation were investigated.
A key feature of the RNA damage response is the formation of stress granules (15). Ras GTPase-activating protein-binding protein 1 (G3BP), a key component of stress granules, forms distinct foci during stress granule formation (12). We determined the dose- and time-dependent effect of 5-FC treatment on stress granule formation by immunostaining of the cells with anti-G3BP antibody. […] The 5-FC-treated cells started to form stress granules only after 24 h of treatment with 1 mM 5-FC, a concentration four times higher than the maximal concentration of 5-FC used for Flura-tagging, or after 48 h of 5-FC treatment at lower concentrations (FIG. 2a).
Human embryonic kidney transformed with […] (293T) and human breast cancer MDA-MB-231 (MDA231) cells were cultured in DMEM High Glucose medium (Wheaton) supplemented with 10% Fetal Bovine Serum (Clontech, Catalog number 631106) supplemented with 2 mM L-Glutamine. All cell lines have been routinely tested for mycoplasma contamination. For the induction of CD or CD and UPRT, cells were treated with 1 μg/ml doxycycline for 24 h. For Fluorouracil tagging, cells were treated with 250 μM of 5-FC or 5-FU unless indicated. Where indicated, 125 μM thymine was added together with 5-FC. […]

CD/UPRT-expressing cells = format: cell-based; settings: human
Description: as §1
For a more sensitive analysis of potential alterations caused by Flura-tagging, we investigated the transcriptional changes occurring under these experimental conditions. We compared the transcriptome of cells treated with two different concentrations of 5-FC (50 μM and 250 μM) at two different time points (4 h and 12 h) with that of control cells, using RNA-seq. […] This number increased to 190, 1325 and 1965 genes in cells treated with 250 μM 5-FC for 4 h, 50 μM 5-FC for 12 h, and 250 μM 5-FC for 12 h, respectively (FIG. 2b). Moreover, a majority of these differences in gene expression were within a four-fold range (FIG. 2b).
RNA-seq library preparation. Total RNA was purified using Qiagen RNeasy Mini Kit. Quality and quantity was checked by Agilent […]. 10 ng RNA per sample was used for library construction with Sample Prep Kit v2 (Illumina) according to manufacturer's instructions. Libraries were multiplex sequenced libraries on a Hiseq2500 platform, and more than 25 million raw paired-end reads were generated for each sample.
Reads were quality checked using FastQC v0.11.5 and mapped to a human (hg19) or hybrid human-mouse (hg19-mm10) genome with STAR2.5.2b (22) using standard settings for paired reads. Uniquely mapped reads were assigned to annotated genes with HTSeq v0.6.1p1 (23) with default settings. Read counts were normalized by library size, and differential gene expression analysis based on a negative binomial distribution was performed using DESeq2 v3.4 (24). In general, thresholds for differential expression were set as follows: adjusted p-value<0.05, fold change >2.0 or <0.5, and average normalized read count >10. Genes were considered detectable in the immunoprecipitation samples with a normalized read count >100. Gene set enrichment analysis was performed using GSVA v3.4 (25) and previously curated gene sets (26): HALLMARK_TGF_BETA_SIGNALING, HALLMARK_HEDGEHOG_SIGNALING, HALLMARK_WNT_BETA_CATENIN_SIGNALING, HALLMARK_PI3_K_AKT_MTOR_SIGNALING, HALLMARK_NOTCH_SIGNALING, HALLMARK_KRAS_SIGNALING_UP, CORDENONSI_YAP_CONSERVED_SIGNATURE, HALLMARK_IL6_JAK_STAT3_SIGNALING.

With `Nc1nc(=O)[nH]cc1F` [5-FC, 5-fluorocytosine] the “stress granules after 12 h” value (MDA231 cells) was “did not contain stress granules”, the “treatment time after which cells started to form stress granules” value (MDA231 cells) was 48 h and the “treatment time after which cells started to form stress granules” value (MDA231 cells; 1 mM) was 24 h. The “genes with more than 4-fold difference” value (CD/UPRT-expressing cells; 4 h, 50 μM) was 10 genes, the “genes with statistically significant differences in expression vs control cells” value (CD/UPRT-expressing cells; 4 h, 50 μM) was 113 genes and the “genes with more than 4-fold difference” value (CD/UPRT-expressing cells; 4 h, 250 μM) was 15 genes. The “genes with statistically significant differences in expression vs control cells” value (CD/UPRT-expressing cells; 4 h, 250 μM) was 190 genes, the “genes with more than 4-fold difference” value (CD/UPRT-expressing cells; 12 h, 50 μM) was 102 genes and the “genes with statistically significant differences in expression vs control cells” value (CD/UPRT-expressing cells; 12 h, 50 μM) was 1325 genes. For the same compound, the “genes with more than 4-fold difference” value (CD/UPRT-expressing cells; 12 h, 250 μM) was 182 genes and the “genes with statistically significant differences in expression vs control cells” value (CD/UPRT-expressing cells; 12 h, 250 μM) was 1965 genes.
